In patent US20250213646A1, “BIOACTIVE WALNUT PEPTIDES AND COMPOSITIONS FOR TREATING SKIN” (L'OREAL, priority 2024, published 2025):

Key:
Type in all cases: cell-based
[1] = test system: Adult Normal Human Epidermal Keratinocytes; experiment: Differential gene expression (RNA sequencing) in keratinocytes treated with walnut peptides; conditions: 100 uM or 500 uM peptide in culture media
Description: Peptide I, II, and III were investigated for their ability to influence gene expression at concentration at 100 μM abd 500 μM for cells and 250 μM for reconstructed human epidermis (RHE).
Adult Normal Human Epidermal Keratinocytes (Lot 80819221, Passage 3, ATCC) were expanded and seeded into a 6-well plate at a density of 300,000 cells/well. Cells were grown in Dermal Cell Basal Medium (ATCC PCS-200-030) supplemented with one Keratinocyte Growth Kit (ATCC PCS-200-040). Cells attached overnight and then culture media was aspirated and replaced with media containing either 100 uM or 500 uM of Peptide I, Peptide II, or Peptide III. Cells were cultured for […] with treatment with renewal of treatment medium every other day with the exception of weekends. Following the 7-day incubation period, cells were trypsinized and the cell pellet was snap-frozen using liquid nitrogen. Cells then underwent RNA sequencing. The log 2 fold change for each treatment group compared to untreated control samples for differentially expressed genes (DEGs) related to skin barrier were analyzed. Fold change was plotted via heatmap to show upregulation or downregulation of these genes. Microsoft Excel and GraphPad Prism were used for additional analysis and data presentation. The results are shown in the heatmap of FIG. 1.

[2] = test system: transglutaminase 1 (TGM1); experiment: Barrier renewal, microneedle ex vivo skin model: TGM1 immunohistochemistry; conditions: 500 μM of each peptide in media; 7-day culture; microneedled human skin explants
Description: (§1) Fresh post-abdominoplasty normal human skin samples were acquired from BioIVT Inc. (Westbury, NY). Tissue was defatted and cleaned of blood residue. Tissue was then subjected to treatment using a microneedling pen (36-pin needles, Dr. Pen A6 Cartridges Tips, Dr. Pen Inc., San Jose, CA, USA) with a needle length of 1.5 mm. Tissue was subjected to 5 passes of the microneedle. Following treatment, 1.2 cm diameter skin biopsies were created and cultured at the air-liquid interface. Skin explants not subjected to microneedling served as the untreated control group. Control and microneedle control samples were cultured in Dulbecco's Modified Eagle's Medium (650 μL per well, DMEM with 10% fetal bovine serum and 1% penicillin-streptomycin) at 37° C. and 5% CO2. Treated microneedle samples with the peptides were cultured in DMEM with 10% fetal bovine serum, 1% penicillin-streptomycin. 500 uM of each peptide was dissolved into the media. Treatment medium was changed every other day with the exception of weekends. Following a 7-day culture period, all biopsies were processed for histological and immunohistochemical analysis. Skin explants were processed for hematoxylin and eosin (H&E) staining and immunohistochemical staining against filaggrin (FLG) and transglutaminase 1 (TGM1) according to standard protocol (HistoWiz, Brooklyn, NY).

[3] = test system: filaggrin (FLG); experiment: Barrier renewal, microneedle ex vivo skin model: filaggrin immunohistochemistry; conditions: 500 μM of each peptide in media; 7-day culture; microneedled human skin explants
Description: as §1

[4] = test system: normal human skin samples; experiment: Ex vivo chronic inflammation model (CSC): H&E histology; conditions: 500 μM of each peptide; cell stimulation cocktail (CSC); 7-day culture; human skin explants
Description: Fresh post-abdominoplasty normal human skin samples were acquired from BioIVT Inc. (Westbury, NY). Tissue was defatted and cleaned of blood residue. 1.2 cm diameter skin biopsies were created and cultured at the air-liquid interface. Skin explants not subjected to the inflammatory stimulant served as the untreated control group. Control samples were cultured in Dulbecco's Modified Eagle's Medium (650 μL per well, DMEM with 10% fetal bovine serum and 1% penicillin-streptomycin) at 37° C. and 5% CO2. Treated microneedle samples with the peptides were cultured in DMEM with 10% fetal bovine serum, 1% penicillin-streptomycin with a 2× dilution of cell stimulation cocktail (CSC) 500×. Samples treated with the peptide contained 500 μM of each peptide dissolved into the media. Fresh stimulants were made each time replenishing the treatment medium every other day with the exception of weekends. Following a 7-day culture period, all biopsies were processed for histological and immunohistochemical analysis. Skin explants were processed for hematoxylin and eosin (H&E) staining and immunohistochemical staining against filaggrin (FLG) and transglutaminase 1 (TGM1) according to standard protocol (HistoWiz, Brooklyn, NY).

Tyr-Val-Leu-Leu-Pro-Ser-Pro-Lys (YVLLPSPK) (printed: Tyr-Val-Leu-Leu-Pro-Ser-Pro-Lys) [Peptide II]
differentially expressed genes (DEGs) related to skin barrier, log 2 fold change compared to untreated control (FIG. 1) [1]: strong benefits to the skin barrier on a cellular level at both concentrations tested | expression and localization of TGM1 after microneedling [2]: increase the expression of TGM1 and localization | filaggrin expression after microneedling [3]: increase filaggrin expression | epidermal stress, spongiosis/vacuole formation induced by CSC (H&E histology, FIG. 4) [4]: ameliorated

Lys-Val-Pro-Pro-Leu-Leu-Tyr (KVPPLLY) (printed: Lys-Val-Pro-Pro-Leu-Leu-Tyr) [Peptide III]
differentially expressed genes (DEGs) related to skin barrier, log 2 fold change compared to untreated control (FIG. 1) [1]: strong benefits to the skin barrier on a cellular level at both concentrations tested | expression and localization of TGM1 after microneedling [2]: increase the expression of TGM1 and localization | filaggrin expression after microneedling [3]: increase filaggrin expression | epidermal stress, spongiosis/vacuole formation induced by CSC (H&E histology, FIG. 4) [4]: ameliorated

Thr-Trp-Leu-Pro-Leu-Pro-Arg (TWLPLPR) (printed: Thr-Trp-Leu-Pro-Leu-Pro-Arg) [Peptide I]
differentially expressed genes (DEGs) related to skin barrier, log 2 fold change compared to untreated control (FIG. 1) [1]: showed an influence at the higher concentration | expression and localization of TGM1 after microneedling [2]: increase the expression of TGM1 and localization | filaggrin expression after microneedling [3]: increase filaggrin expression | epidermal stress, spongiosis/vacuole formation induced by CSC (H&E histology, FIG. 4) [4]: ameliorated
